Here are results for one molecule from patent publication US20080031935A1, “Cholinesterase Inhibitors In Liposomes And Their Production And Use” (priority 2004, published 2008).

The structures appear in SMILES notation.

This data set in a line: Solubility of galantamine base in ethanol. Type of data set: physicochemical.

`COc1ccc2c3c1O[C@H]1C[C@@H](O)C=C[C@@]31CCN(C)C2` [galantamine base, galantamine]: the solubility in ethanol result was “soluble”.
